Where only a bound is given, the exact number is not on record here.

These results are taken from patent US20140120087A1, “TRIAZOLOPYRIDINES” (BAYER INTELLECTUAL PROPERTY GMBH, priority 2011, published 2014).

Experiment [1] concerns the target T1, Mps-1 kinase (Homo sapiens, UniProt P33981).
T1 sequence (P33981 1-857): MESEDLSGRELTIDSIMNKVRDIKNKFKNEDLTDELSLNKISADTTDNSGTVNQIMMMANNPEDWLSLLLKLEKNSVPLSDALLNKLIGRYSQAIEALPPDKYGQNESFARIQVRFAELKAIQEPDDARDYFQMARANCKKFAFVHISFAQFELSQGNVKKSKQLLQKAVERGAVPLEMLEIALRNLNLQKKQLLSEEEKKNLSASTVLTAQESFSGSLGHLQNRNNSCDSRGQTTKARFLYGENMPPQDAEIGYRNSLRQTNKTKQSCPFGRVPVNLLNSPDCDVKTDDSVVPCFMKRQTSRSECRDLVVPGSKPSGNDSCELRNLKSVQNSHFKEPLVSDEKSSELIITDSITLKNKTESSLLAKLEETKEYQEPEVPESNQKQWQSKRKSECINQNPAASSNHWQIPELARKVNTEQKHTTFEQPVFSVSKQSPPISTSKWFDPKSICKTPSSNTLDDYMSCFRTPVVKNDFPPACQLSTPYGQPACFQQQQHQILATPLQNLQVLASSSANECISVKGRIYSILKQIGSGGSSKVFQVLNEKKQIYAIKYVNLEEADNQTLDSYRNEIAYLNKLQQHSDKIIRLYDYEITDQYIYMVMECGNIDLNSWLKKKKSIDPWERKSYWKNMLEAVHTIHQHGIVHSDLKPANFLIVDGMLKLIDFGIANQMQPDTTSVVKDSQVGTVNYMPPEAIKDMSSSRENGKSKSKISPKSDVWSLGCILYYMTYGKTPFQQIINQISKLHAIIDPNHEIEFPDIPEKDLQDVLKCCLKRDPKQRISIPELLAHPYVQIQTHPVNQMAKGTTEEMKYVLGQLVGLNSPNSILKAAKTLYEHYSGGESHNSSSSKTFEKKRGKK
The experiment is described as follows: Mps-1 kinase assay with 10 μM ATP (TR-FRET).

The target of experiment [2] is T1, Mps-1 kinase. In words: Mps-1 kinase assay with 2 mM ATP (TR-FRET).

As for `COc1cc([S@@+](C)[O-])c(F)cc1Nc1nc2ccc(-c3ccc(NC(=O)Cc4ccc(F)cc4)cc3)cn2n1` (stereo in doubt) [Example 12.14, N-[4-(2-{[5-fluoro-2-methoxy-4-(methylsulfinyl)-phenyl]amino}[1,2,4]-triazolo[1,5-a]pyridin-6-yl)-phenyl]-2-(4-fluorophenyl)-acetamide], the values for the IC50 in experiment [1] and in experiment [2] were no more than 1 nM and 8.5 nM, respectively.

As for `CS(=O)(=O)c1ccc(Nc2nc3ccc(-c4ccc(NC(=O)Cc5ccc(F)cc5)cc4)cn3n2)c(OCC(F)(F)F)c1` [Example 01.34, 2-(4-fluorophenyl)-N-[4-(2-{[4-(methylsulfonyl)-2-(2,2,2-trifluoroethoxy)-phenyl]amino}[1,2,4]triazolo[1,5-α]pyridin-6-yl)phenyl]acetamide], the IC50 in experiment [1] and in experiment [2] was no more than 1 nM each time.

In the case of `COc1cc(C(C)(C)O)ccc1Nc1nc2ccc(-c3ccc(NC(=O)Cc4ccc(F)cc4)cc3)cn2n1` [Example 12.17, 2-(4-fluorophenyl)-N-[4-(2-{[4-(2-hydroxypropan-2-yl)-2-methoxyphenyl]amino}-[1,2,4]triazolo[1,5-a]pyridin-6-yl)phenyl]acetamide], the IC50 in experiment [1] and in experiment [2] was no more than 1 nM throughout.

On to `CCN(Cc1ccc(Nc2nc3ccc(-c4ccc(NC(=O)Cc5ccc(F)cc5)cc4)cn3n2)c(OC)c1)C(C)(C)CO` [Example 12.16, N-(4-{2-[(4-{[ethyl(1-hydroxy-2-methylpropan-2-yl)amino]methyl}-2-methoxyphenyl)amino]-[1,2,4]triazolo[1,5-a]pyridin-6-yl}phenyl)-2-(4-fluorophenyl)acetamide], for which the IC50 in experiment [1] and in experiment [2] was no more than 1 nM each time.

Consider `CCOc1cc(C(=O)NCCN(C)C)ccc1Nc1nc2ccc(-c3ccc(NC(=O)Cc4ccc(F)cc4)cc3)cn2n1` [Example 12.20, N-[2-(dimethylamino)ethyl]-3-ethoxy-4-{[6-(4-{[(4-fluorophenyl)acetyl]amino}-phenyl)[1,2,4]triazolo[1,5-a]pyridin-2-yl]amino}-benzamide], for which the IC50 in experiment [1] and in experiment [2] was no more than 1 nM throughout.

Consider `O=C(NCc1ccc(F)cc1)c1ccc(-c2ccc3nc(Nc4ccc(F)cc4OC(F)F)nn3c2)cc1` [Example 12.63, 4-(2-{[2-(difluoromethoxy)-4-fluorophenyl]amino}-[1,2,4]triazolo[1,5-a]pyridin-6-yl)-N-(4-fluoro-benzyl)benzamide], for which the IC50 in experiment [1] was no more than 1 nM; in experiment [2] it was 26 nM.

For `CCOc1cc(C(=O)N(C)CC)ccc1Nc1nc2ccc(-c3ccc(C(=O)NCc4ccc(F)cc4)cc3)cn2n1` [Example 12.56, 3-ethoxy-N-ethyl-4-[(6-{4-[(4-fluorobenzyl)carbamoyl]phenyl}[1,2,4]triazolo[1,5-a]pyridin-2-yl)amino]-N-methylbenzamide], the IC50 in experiment [1] and in experiment [2] was no more than 1 nM throughout.

On to `NC(=O)c1ccc(Nc2nc3ccc(-c4ccc(NC(=O)Cc5ccc(F)cc5)cc4)cn3n2)c(OC(F)(F)F)c1` [Example 12.25, 4-{[6-(4-{[(4-fluorophenyl)-acetyl]amino}phenyl)[1,2,4]triazolo[1,5-a]pyridin-2-yl]amino}-3-(trifluoro-methoxy)benzamide], for which the IC50 in experiment [1] is no more than 1 nM; in experiment [2], 2.7 nM.

Consider `CCNC(=O)c1ccc(Nc2nc3ccc(-c4ccc(C(=O)NCc5ccc(F)cc5)cc4)cn3n2)c(C)c1` [Example 12.64, N-ethyl-4-[(6-{4-[(4-fluoro-benzyl)carbamoyl]phenyl}-[1,2,4]triazolo[1,5-a]pyridin-2-yl)amino]-3-methyl-benzamide], for which the figures for the IC50 in experiment [1] and in experiment [2] were no more than 1 nM and 1.6 nM, respectively.

Turning to `COc1cc(S(C)(=N)=O)ccc1Nc1nc2ccc(-c3ccc(NC(=O)Cc4ccc(F)cc4)cc3)cn2n1` (stereo not drawn) [Example 12.82, 2-(4-fluorophenyl)-N-[4-(2-{[2-methoxy-4-(S-methylsulfonimidoyl)phenyl]-amino}[1,2,4]triazolo[1,5-α]pyridin-6-yl)phenyl]acetamide], the IC50 in experiment [1] and in experiment [2] was no more than 1 nM in each case.
